Where two headings read alike, the source gives them in different places.
Key:
[1] = PK study after oral gavage; assay type: in vivo, C57BL/6J mice; details: 50 mg/kg
[2] = Stability in SIF (pancreatin + bile salts); assay type: physicochemical; details: 24 h
Procedure: To examine the breakdown of nGM@CUR-UsNF and cGM@CUR-UsNF in SGF and SIF, Fӧrster resonance energy transfer (FRET) analysis was conducted. Formulations co-loaded with HIQ and NR (FRET pairs) were prepared by mixing galactomannan or cGM with HIQ (1 mg/mL) and NR (0.4 mg/mL), followed by sonication 150 W and 25 kHz in an ice-water bath and then filtered using a 0.1 μm membrane. Ultimately, the HIQ/NR@cGM was produced by exposing it to a 253.7 nm UV light at 36 W for 90 min. The control sample of HIQ/NR@GM was also prepared. The PS, PDI, and ZP of the prepared formulations were assessed through dynamic laser scattering. The LE was also determined. The prepared formulations were mixed with SGF or SIF in tubes. […] Fluorescence intensities were captured using a SYNERGY/HTX (BioTek, Germany) with the excitation at 510 nm and emission at 635 nm. The FRET ratio was determined using the formula FRET ratio = INR/(INR + IHIQ), where IHIQ and INR represented the fluorescence intensities of HIQ and NR at 510 nm and 635 nm, respectively, with an excitation wavelength of 450 nm. […] CUR retention was measured using HPLC following the separation of the released drug, while particle size was assessed through DLS analysis. The stability of the polymer was evaluated using gel permeation chromatography and a reducing sugar assay. […]

[3] = Dose determination: body weight and liver weight; assay type: in vivo, C57BL/6 mice; details: for Final body weight / Liver weight / Rel. liver weight: n = 12
Procedure: We first determined the doses of UsNFs and free-CUR in eight-week-old female C57BL/6 mice before systematically evaluating the retention of UsNFs in the GIT and PK of CUR. […] Consequently, 50 mg/kg was identified as the optimal dosage for subsequent in vivo therapeutic assessment of both UsNFs and free-CUR, achieving a balance between efficacy potential, safety, and physiological tolerance.

[4] = Storage stability of UsNFs in MQW over 180 days at 37 °C; assay type: physicochemical; details: 37 ± 1 °C
Procedure: The release kinetics of CUR from the UsNFs was also measured for 24 h in simulated gastric fluid (SGF; pH 2.5) and simulated intestinal fluid (SIF; pH 7.0) at 37 ± 1 °C (Fig. 2F). […] Additionally, the stability of UsNFs, which were dissolved at a concentration of 2 mg/mL in MQW, was also tested over 180 days at a temperature of 37 ± 1 °C (Fig. 2G and H). […] The autoxidation, hydrolysis, and degradation-induced content loss of CUR is a significant issue.

[5] = test system: faecal metabolites of gut bacteria; assay: Faecal metabolome analysis (GC-MS) in VAN-induced mice; assay type: in vivo, C57BL/6 mice; details: faeces, VAN vs treated group, n = 5
Procedure: The extract of faecal samples (40 mg/ml methanol) was prepared as described in the previous method. The obtained dry extract was derivatized with methoxyamine-HCl and BSTFA (Sigma-Aldrich, USA), followed by incubation for 1 h at 37 °C. Subsequently, the supernatant (10 μl) obtained after centrifugation at 10,000×g for 12 min was injected into an Agilent GC-MS. The injector, transfer line, and ion source were set at 280 °C, 150 °C and 230 °C, respectively. At the beginning, we set the oven temperature to 60 °C, and then increased at 60 °C/min for 2 min, followed by an increase at the rate of 10 °C/min until reaching 300 °C.

[6] = male, C57BL/6J, mouse, CUR in plasma, n = 6
[7] = male, C57BL/6J, mouse, plasma, n = 6

With COc1cc(/C=C/C(=O)CC(=O)/C=C/c2ccc(O)c(OC)c2)ccc1O [free-CUR, curcumin] the Cmax ([1]; CUR in plasma, n = 6) was 7.126 ± 0.317 ng/mL, the AUC(0-inf) [1, 6] was 10.4 ± 0.683 ng·h/mL and the AUC(0-t) [1, 6] was 7.68 ± 0.218 ng·h/mL. For the same compound, the Tmax [1, 7] was 30 min, the half-life [1, 7] was 64.6 ± 8.22 min and the k el ([1]; male, C57BL/6J, mouse, plasma, n = 6, read-out: Ke (converted)) was 5.25e-05 s⁻¹. For the same compound, the Cmax ([1]; male, C57BL/6J, mouse, plasma, po, CUR in plasma, n = 6, read-out: Cmax) was about 7.13 ng/mL, the Bioavailability ([1]; relative to free-CUR, n = 6) was 100.00 ± 29.388% and the CUR retained [2] was “less than 10%”. For the same compound, the “Final body weight or relative liver weight compared to normal control” value ([3]; 25 mg/kg and 50 mg/kg) was “no significant differences”, the Final body weight ([3]; 25 mg/kg) was 22.02 ± 0.15 g and the Liver weight ([3]; 25 mg/kg) was 1.06 ± 0.036 g. For the same compound, the Rel. liver weight ([3]; 25 mg/kg) was 4.81 ± 0.11 Liver wt/100 g b.wt, the Final body weight ([3]; 50 mg/kg) was 21.6 ± 0.19 g and the Liver weight ([3]; 50 mg/kg) was 1.05 ± 0.022 g. It also gave a Rel. liver weight ([3]; 50 mg/kg) of 4.86 ± 0.23 Liver wt/100 g b.wt, a Final body weight ([3]; 75 mg/kg) of 16.2 ± 0.21 g and a Liver weight ([3]; 75 mg/kg) of 1.19 ± 0.038 g. For the same compound, the Rel. liver weight ([3]; 75 mg/kg) was 7.34 ± 0.16 Liver wt/100 g b.wt, the “CUR content remaining after storage” value [4] was 27% and the “CUR degradation during storage” value [4] was “over 73%”. The “Fold change, 2,4,5-Trihydroxypentanoic acid” value [5] was 0.778, the “Fold change, 2-Hydroxyglutaric acid” value [5] was 3.491 and the “Fold change, 4-Aminobutyric acid” value [5] was 0.998. The “Fold change, 4-Hydroxy-3-methoxybenzoic acid” value [5] was 0.619, the “Fold change, 4-Hydroxyproline” value [5] was 0.924 and the “Fold change, 5-Aminovaleric acid” value [5] was 1.101. For the same compound, the “Fold change, 9,12,15-Octadecatrienoic acid” value [5] was 1.217, the “Fold change, 9-(Z)-Hexadecenoic acid” value [5] was 1.102 and the “Fold change, Acetate” value [5] was 0.733. The “Fold change, Adenine” value [5] was 0.325, the “Fold change, Alanine” value [5] was 0.743 and the “Fold change, Arabitol” value [5] was 0.432. The “Fold change, Aspartic acid” value [5] was 3.075, the “Fold change, Azelaic acid” value [5] was 0.849 and the “Fold change, Benzenepropanoic acid” value [5] was 0.368. For the same compound, the “Fold change, Butyrate” value [5] was 0.168, the “Fold change, Cholesta-8,24-dien-3-ol, 4-methyl-, (3β,4α)” value [5] was 1.313 and the “Fold change, D-fructose” value [5] was 1.400. The “Fold change, D-glucose” value [5] was 1.069, the “Fold change, Eicosanoic acid” value [5] was 0.404 and the “Fold change, Erythronic acid” value [5] was 1.754. The “Fold change, Ethanolamine” value [5] was 1.266, the “Fold change, Fucose” value [5] was 0.580 and the “Fold change, Galacturonic acid” value [5] was 1.024. For the same compound, the “Fold change, Gentiobiose” value [5] was 2.357, the “Fold change, Gluconic acid” value [5] was 1.119 and the “Fold change, Glutaric acid” value [5] was 0.708. The “Fold change, Glycerol” value [5] was 0.926, the “Fold change, Glycerol-3-phosphate” value [5] was 2.032 and the “Fold change, Glycolic acid” value [5] was 2.144. For the same compound, the “Fold change, Hexadecanoic acid” value [5] was 1.155, the “Fold change, Hexanoic acid” value [5] was 1.359 and the “Fold change, Homoserine” value [5] was 2.352. For the same compound, the “Fold change, Hypoxanthine” value [5] was 0.916, the “Fold change, Isoleucine” value [5] was 1.058 and the “Fold change, L-rhamnose” value [5] was 0.191. For the same compound, the “Fold change, Lactic acid” value [5] was 0.573, the “Fold change, Leucine” value [5] was 0.704 and the “Fold change, Lysine” value [5] was 0.526. The “Fold change, Methionine” value [5] was 1.121, the “Fold change, Nicotinic acid” value [5] was 0.616 and the “Fold change, Octadecadienoic acid” value [5] was 1.285. The “Fold change, Ornithine” value [5] was 0.453, the “Fold change, Orotic acid” value [5] was 1.443 and the “Fold change, Pantothenic acid” value [5] was 0.519. For the same compound, the “Fold change, Pentadecanoic acid” value [5] was 0.271, the “Fold change, Phenylalanine” value [5] was 0.989 and the “Fold change, Phosphoric acid” value [5] was 1.212. For the same compound, the “Fold change, Propionate” value [5] was 1.530, the “Fold change, Ribitol” value [5] was 1.340 and the “Fold change, Serine” value [5] was 0.538. For the same compound, the “Fold change, Sorbitol” value [5] was 1.816, the “Fold change, Tetradecanoic acid” value [5] was 0.349 and the “Fold change, Threitol” value [5] was 2.116. For the same compound, the “Fold change, Threonic acid” value [5] was 1.362, the “Fold change, Threonine” value [5] was 1.275 and the “Fold change, Thymine” value [5] was 1.214. The “Fold change, Tricosadiynoic acid” value [5] was 0.767, the “Fold change, Tryptophan” value [5] was 1.117 and the “Fold change, Uracil” value [5] was 0.561. The “Fold change, Uric acid” value [5] was 0.772, the “Fold change, beta-Alanine” value [5] was 1.217 and the “Fold change, myo-Inositol” value [5] was 2.179. The “Fold change, myo-Inositol-1-phosphate” value [5] was 0.584.

Source: paper PMC12702354, “Engineered an ultrasmall curcumin oral nanoformulation restores intestinal integrity and gut microbiota dysbiosis” (Materials Today Bio, 2025)
